Structures can show the parent of a compound that is named as a salt.
Legend:
Dutch Belted rabbits [1] = assay type: in vivo; settings: articaine 4%, 8%, or 12%, bilateral topical, two drops of 35 μL/eye, observed 24 hours
Experimental: Two subparts of one study were conducted on Dutch Belted rabbits, namely, an ocular tolerability study followed by an ocular biodistribution study.
(§1) In the ocular tolerability study, a total of twelve male Dutch Belted rabbits divided randomly into four groups, were administered a placebo of phosphate buffered saline (PBS) or articaine at 4%, 8%, or 12% respectively. […] Ophthalmic examinations were performed on dose tolerability animals (Groups 1 through 4) predose and at 5, 10, and 20 minutes, and at 1, 2, 4, and 24 hours post the second eye drop administration in each eye using the modified Hackett-McDonald Scoring System. Following the modified Hackett-McDonald Scoring, local anesthetic effect was monitored in each eye by Cochet-Bonnet esthesiometry predose and at approximately 5, 10, and 20 minutes, and 1 hour following administration of the second eye drop in each eye. […] Topical ocular administration of articaine provided an anesthetic effect out to 20 minutes postdose with no notable tolerability issues.

Dutch Belted rabbits [2] = experiment: Local anesthetic effect by Cochet-Bonnet esthesiometry; assay type: in vivo; settings: topical ocular administration, two drops of 35 μL/eye
Experimental: as §1

[3] = rabbit, in vivo
Experimental: (§2) In the ocular biodistribution study, after a minimum of 72 hours following the completion of the ocular tolerability study, the twelve rabbits were re-assigned to Group 5 for the ocular biodistribution study. Group 6 was added and consisted of 3 naïve rabbits. Group 6 was included to evaluate the potential carryover effect of articaine over a 72 hour period post treatment. Group 5 and 6 animals were administered articaine at 8% and 12% w/v, respectively. Doses were administered via bilateral topical administration (two drops of 35 μL/eye). Group 5 animals were sacrificed at 10 minutes, and 1, 4 and 8 hours post treatment (N=3 at each time point). Group 6 rabbits were sacrificed at 24, 48 and 72 hours post treatment (N=1 at each time point). Just prior to sacrifice blood samples were collected from each animal. Animals were then euthanized and aqueous humor, conjunctivas (palpebral and bulbar), lens, cornea, vitreous humor, iris-ciliary body [ICB], optic nerve, lacrimal gland, retina, and choroid were collected.
(§3) The objectives of this study were to determine the tolerability of placebo and Articaine HCl ophthalmic solutions at concentrations of 4, 8, and 12% (w/v) following topical eye drop administration, and to determine the ocular pharmacokinetics and biodistribution of articaine and articainic acid following topical eye drop administration of 8% Articaine HCl ophthalmic solution.

[4] = in vivo; cited from earlier work
in vivo = settings: male, Dutch Belted, rabbit, topical or ocular
Experimental: as §2, §3

[5] = Ocular biodistribution / pharmacokinetics study
Experimental: as §2, §3

| residual concentrations in ocular matrices ([5]; 12% articaine topical, 24, 48, and 72 hours postdose) | ratio of AUC0-last articainic acid over AUC0-last articaine ([5]; all other matrices) | ratio of AUC0-last articainic acid over AUC0-last articaine ([5]; cornea) | T1/2 (half-life) ([5]; plasma) | ratio of AUC0-last articainic acid over AUC0-last articaine ([5]; plasma) | Plasma Cmax ([5]; plasma, 8% articaine topical, two drops of 35 μL/eye) | Compound | tolerability / treatment related adverse effects (Dutch Belted rabbits [1]) | anesthetic effect, time postdose (Dutch Belted rabbits [2]) | systemic exposure, as indicated by plasma AUC [3] | excreted as the metabolites [4] | protein binding [4] | renally excreted unchanged [4] | Tmax (in vivo) | Cmax (in vivo; Plasma Cmax) |
| --- | --- | --- | --- | --- | --- | --- | --- | --- | --- | --- | --- | --- | --- | --- |
|  |  |  |  |  |  | CCCNC(C)C(=O)Nc1c(C)csc1C(=O)OC (centres unmarked) [articaine, 4-methyl-3 (2-[propylamino]proprioamido)-2-thiophenecarboxylic acid, methyl ester hydrochloride] | well tolerated in all animals at concentrations up to 12% w/v | 20 min | minimal | 89% | highly protein bound | Five to ten | 10 min | 457 ng/mL |
| Low residual concentrations | < 0.7 | approximately 2 | approximately 1.5 hours | approximately 2 | 217 ng/mL | Articainic acid |  |  |  |  |  |  |  |  |

Source: patent publication US11826347B2, “Anesthetic composition and method of anesthetizing the eye” (priority 2018, dated 2023)
